According to ChEMBL document CHEMBL1201862, “PubChem BioAssay data set” (2004):
Values belong to the compound of their own block, whether it stands above or below them. The source made the active and inactive calls.

Assays:
[1] = biological target: T1, Sentrin-specific protease 8 (Homo sapiens, UniProt Q96LD8); experiment: inhibition of human SENP8 cleavage activity – biochemical, luminescence, SAR follow-up (AID 504501); format: functional
T1 sequence (Q96LD8 whole entry): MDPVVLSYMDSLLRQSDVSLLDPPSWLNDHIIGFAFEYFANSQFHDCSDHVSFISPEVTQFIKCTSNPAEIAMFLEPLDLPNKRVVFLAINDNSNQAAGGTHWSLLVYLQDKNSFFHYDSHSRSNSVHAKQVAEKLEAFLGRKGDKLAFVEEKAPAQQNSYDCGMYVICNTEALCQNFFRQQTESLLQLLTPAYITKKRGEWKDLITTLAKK

Caspase-3 = biological target: T2, Caspase-3 (Homo sapiens, UniProt P42574); experiment: SAR Analysis of small molecule inhibitors of Sentrin-specific proteases (SENPs) using a Caspase-3 Selectivity assay. [Related pubchem assays (depositor defined):AID2540, AID2599, AID434973, AID489001]; format: functional
T2 sequence (P42574 whole entry): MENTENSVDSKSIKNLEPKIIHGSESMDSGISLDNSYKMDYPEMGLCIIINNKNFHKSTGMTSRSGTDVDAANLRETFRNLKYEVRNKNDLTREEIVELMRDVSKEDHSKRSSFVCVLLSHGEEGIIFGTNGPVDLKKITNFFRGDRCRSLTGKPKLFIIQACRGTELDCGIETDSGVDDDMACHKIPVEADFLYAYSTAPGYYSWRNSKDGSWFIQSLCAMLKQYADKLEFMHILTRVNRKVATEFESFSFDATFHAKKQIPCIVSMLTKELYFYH

[2] = biological target: T3, Sentrin-specific protease 6 (Homo sapiens, UniProt Q9GZR1); experiment: SAR Analysis of small molecule inhibitors of Sentrin-specific protease 6 (SENP6) using a Luminescent assay. [Related pubchem assays (depositor defined):AID2582, AID2599]; format: functional
T3 sequence (Q9GZR1 whole entry): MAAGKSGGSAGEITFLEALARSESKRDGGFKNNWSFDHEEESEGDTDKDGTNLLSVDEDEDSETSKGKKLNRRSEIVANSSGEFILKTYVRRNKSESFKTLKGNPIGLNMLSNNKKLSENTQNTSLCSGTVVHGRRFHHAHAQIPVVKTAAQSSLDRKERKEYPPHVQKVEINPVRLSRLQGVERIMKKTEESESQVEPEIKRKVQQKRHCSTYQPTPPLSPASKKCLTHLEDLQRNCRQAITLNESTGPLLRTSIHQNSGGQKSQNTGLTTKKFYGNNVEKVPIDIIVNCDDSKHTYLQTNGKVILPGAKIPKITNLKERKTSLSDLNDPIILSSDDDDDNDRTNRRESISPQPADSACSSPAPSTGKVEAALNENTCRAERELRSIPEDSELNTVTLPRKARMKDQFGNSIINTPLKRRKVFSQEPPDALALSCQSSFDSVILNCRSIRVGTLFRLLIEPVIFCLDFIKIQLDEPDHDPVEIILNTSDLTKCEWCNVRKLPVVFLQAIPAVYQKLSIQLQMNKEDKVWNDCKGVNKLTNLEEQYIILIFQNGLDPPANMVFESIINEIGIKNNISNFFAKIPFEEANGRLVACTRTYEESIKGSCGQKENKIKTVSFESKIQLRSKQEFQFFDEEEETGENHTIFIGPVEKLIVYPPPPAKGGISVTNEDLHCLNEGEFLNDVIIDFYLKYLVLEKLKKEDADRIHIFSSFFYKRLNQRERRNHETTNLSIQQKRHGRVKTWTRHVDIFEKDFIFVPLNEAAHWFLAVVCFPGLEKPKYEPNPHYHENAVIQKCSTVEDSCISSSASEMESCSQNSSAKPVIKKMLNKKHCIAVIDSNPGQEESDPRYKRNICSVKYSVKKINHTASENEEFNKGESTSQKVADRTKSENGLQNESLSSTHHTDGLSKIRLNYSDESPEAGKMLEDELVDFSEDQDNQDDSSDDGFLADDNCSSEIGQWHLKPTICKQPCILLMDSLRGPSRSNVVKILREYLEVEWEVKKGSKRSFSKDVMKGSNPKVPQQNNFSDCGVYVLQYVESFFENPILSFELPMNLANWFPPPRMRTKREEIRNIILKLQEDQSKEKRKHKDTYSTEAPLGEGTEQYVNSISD

[3] = biological target: T4, Sentrin-specific protease 7 (Homo sapiens, UniProt Q9BQF6); experiment: inhibition of human SENP7 cleavage activity – biochemical, luminescence, SAR follow-up (AID 504497); format: functional
T4 sequence (Q9BQF6 whole entry): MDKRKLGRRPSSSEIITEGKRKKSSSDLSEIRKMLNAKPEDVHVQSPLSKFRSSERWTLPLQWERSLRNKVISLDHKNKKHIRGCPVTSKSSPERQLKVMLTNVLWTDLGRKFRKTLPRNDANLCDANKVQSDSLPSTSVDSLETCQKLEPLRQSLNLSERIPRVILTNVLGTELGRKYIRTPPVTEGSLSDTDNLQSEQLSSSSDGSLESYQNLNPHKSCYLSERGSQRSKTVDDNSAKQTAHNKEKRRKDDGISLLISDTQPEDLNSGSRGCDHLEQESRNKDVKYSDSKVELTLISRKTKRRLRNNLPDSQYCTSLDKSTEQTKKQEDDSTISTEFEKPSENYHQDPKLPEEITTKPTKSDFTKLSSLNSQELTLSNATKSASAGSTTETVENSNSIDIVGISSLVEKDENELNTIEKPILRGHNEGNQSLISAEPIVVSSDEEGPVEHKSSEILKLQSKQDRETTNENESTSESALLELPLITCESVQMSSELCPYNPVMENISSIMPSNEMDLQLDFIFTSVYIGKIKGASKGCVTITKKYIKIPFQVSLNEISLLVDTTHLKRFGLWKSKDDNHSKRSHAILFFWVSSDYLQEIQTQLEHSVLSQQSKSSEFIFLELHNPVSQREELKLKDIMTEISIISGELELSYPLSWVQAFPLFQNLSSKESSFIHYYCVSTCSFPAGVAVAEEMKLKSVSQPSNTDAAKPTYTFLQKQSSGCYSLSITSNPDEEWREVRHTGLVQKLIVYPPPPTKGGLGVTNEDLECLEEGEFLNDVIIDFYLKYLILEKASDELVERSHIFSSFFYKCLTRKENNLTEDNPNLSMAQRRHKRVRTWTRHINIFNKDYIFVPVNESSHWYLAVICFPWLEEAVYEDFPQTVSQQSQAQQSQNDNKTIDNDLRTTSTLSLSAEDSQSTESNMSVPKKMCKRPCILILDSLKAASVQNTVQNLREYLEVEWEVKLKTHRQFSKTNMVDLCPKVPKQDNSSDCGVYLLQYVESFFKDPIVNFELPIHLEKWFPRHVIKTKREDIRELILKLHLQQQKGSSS

HEK293 [4] = experiment: EBV LMP1 TES2 canonical NF-kB signalling blockers – cell-based, HEK293, luciferase, cherry-pick, dose response (AID 588343); format: functional; conditions: Homo sapiens
[5] = biological target: Latent membrane protein 1 (Human herpesvirus 4 (strain B95-8), UniProt P03230); experiment: LMP1 TES1 pathway selectivity over dsRED control – imaging, HEK293T, dual-color eGFP/dsRED, cherry-picks, selectivity assay for LMP1 NF-kB inhibitor project, dose response (AID 588398); format: functional, cell-based
Sequence of Latent membrane protein 1 (P03230 whole entry): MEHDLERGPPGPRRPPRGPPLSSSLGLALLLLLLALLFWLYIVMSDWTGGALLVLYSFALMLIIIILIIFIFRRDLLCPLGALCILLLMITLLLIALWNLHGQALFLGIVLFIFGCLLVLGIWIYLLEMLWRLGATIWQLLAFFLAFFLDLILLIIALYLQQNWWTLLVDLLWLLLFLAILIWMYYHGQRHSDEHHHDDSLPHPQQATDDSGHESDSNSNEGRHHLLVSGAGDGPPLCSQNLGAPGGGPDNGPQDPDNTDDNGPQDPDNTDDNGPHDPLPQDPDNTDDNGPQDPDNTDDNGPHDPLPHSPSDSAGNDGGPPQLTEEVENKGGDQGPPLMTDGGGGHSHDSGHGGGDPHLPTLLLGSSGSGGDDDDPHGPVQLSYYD

[6] = biological target: T5, Corticotropin-releasing factor receptor 2/Corticotropin-releasing factor-binding protein (Homo sapiens, UniProt P24387+Q13324); experiment: Dose Response confirmation of uHTS hits for small molecule antagonists of the CRF-binding protein and CRF-R2 receptor complex.; format: functional; conditions: read-out: IC50_Mean
T5 sequence (Q13324 whole entry): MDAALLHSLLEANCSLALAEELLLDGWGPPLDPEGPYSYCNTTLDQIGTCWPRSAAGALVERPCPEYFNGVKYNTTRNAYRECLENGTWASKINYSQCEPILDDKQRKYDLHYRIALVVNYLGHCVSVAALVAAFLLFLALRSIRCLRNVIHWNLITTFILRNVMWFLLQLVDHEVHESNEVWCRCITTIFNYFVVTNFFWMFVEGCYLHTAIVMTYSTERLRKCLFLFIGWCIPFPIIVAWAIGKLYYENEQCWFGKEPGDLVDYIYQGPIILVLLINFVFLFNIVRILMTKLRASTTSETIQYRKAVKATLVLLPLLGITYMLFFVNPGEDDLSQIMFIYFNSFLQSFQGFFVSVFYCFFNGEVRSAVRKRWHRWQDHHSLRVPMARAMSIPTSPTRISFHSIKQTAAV
T5 sequence (P24387 whole entry): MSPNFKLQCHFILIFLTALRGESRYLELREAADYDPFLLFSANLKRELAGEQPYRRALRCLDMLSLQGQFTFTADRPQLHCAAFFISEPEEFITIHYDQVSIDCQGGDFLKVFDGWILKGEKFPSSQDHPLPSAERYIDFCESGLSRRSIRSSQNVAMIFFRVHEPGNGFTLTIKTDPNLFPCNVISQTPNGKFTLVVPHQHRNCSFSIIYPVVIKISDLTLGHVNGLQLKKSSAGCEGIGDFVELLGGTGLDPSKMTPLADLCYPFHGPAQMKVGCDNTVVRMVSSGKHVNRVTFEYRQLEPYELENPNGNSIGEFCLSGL

[7] = biological target: T5, Corticotropin-releasing factor receptor 2/Corticotropin-releasing factor-binding protein; experiment: activators of CRF receptor 2 with binding protein – uHTS hits, confirmation (AID 602473); format: functional; conditions: read-out: EC50_Mean
[8] = blockers of CRF-binding protein–CRF-R2 complex – cell-based, uHTS hits, 384-well, dose response (AID 651639); format: functional, Homo sapiens; conditions: read-out: IC50_Mean
Insulin-degrading enzyme [9] = biological target: T6, Insulin-degrading enzyme (Homo sapiens, UniProt P14735); experiment: recombinant IDE activation, cell-free – biochemical, fluorescence polarization, counter-screen for IDE activator project, dose response (AID 588681)
T6 sequence (P14735 whole entry): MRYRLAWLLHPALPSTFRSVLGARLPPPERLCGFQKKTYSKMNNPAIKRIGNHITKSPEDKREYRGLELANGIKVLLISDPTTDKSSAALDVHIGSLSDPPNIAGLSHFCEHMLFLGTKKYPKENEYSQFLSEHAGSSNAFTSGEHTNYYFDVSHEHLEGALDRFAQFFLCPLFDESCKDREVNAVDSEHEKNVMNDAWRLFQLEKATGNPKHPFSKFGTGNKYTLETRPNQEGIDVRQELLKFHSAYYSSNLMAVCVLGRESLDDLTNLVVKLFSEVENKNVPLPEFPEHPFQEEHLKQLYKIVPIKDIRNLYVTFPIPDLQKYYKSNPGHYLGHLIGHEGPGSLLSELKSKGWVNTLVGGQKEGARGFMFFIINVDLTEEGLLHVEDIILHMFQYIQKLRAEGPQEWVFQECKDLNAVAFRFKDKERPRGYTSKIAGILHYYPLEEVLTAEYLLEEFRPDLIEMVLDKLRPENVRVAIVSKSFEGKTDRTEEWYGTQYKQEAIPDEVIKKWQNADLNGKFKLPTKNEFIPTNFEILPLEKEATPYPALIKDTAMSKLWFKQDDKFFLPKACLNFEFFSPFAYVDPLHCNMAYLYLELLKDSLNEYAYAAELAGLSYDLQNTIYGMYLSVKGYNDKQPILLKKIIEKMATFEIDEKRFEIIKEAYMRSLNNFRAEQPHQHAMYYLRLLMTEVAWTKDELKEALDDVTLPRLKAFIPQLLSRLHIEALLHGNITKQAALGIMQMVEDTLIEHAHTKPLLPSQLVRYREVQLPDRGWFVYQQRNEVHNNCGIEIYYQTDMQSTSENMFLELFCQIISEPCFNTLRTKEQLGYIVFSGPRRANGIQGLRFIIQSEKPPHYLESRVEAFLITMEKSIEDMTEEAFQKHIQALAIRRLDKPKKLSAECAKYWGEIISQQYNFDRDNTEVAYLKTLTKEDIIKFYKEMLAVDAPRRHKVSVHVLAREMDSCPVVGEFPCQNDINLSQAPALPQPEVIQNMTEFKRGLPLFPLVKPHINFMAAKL

Insulin-degrading enzyme [10] = biological target: T6, Insulin-degrading enzyme; experiment: cellular IDE activation of Abeta substrate cleavage – fluorescence polarization, HEK cells, dose response (AID 588439); format: functional, cell-based
HEK293 [11] = experiment: membrane integrity loss in HEK cells – cell-based, fluorescence, cytotoxicity control for IDE activator project, dose response (AID 588440); format: functional; conditions: Homo sapiens;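 further: cytotoxicity by LDH release measuring loss of membrane integrity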
HEK293 [12] = experiment: optical interference in Abeta FP readout, dose response, artefact control for IDE activator project, biochemical, fluorescence polarization (AID 588442); format: functional, cell-based; conditions: Homo sapiens

IC50 (Caspase-3): > 99 µM (inactive)
IC50 [2]: > 99 µM (inactive)
IC50 [3]: > 99 µM (inactive)
SMILES: O=C(Cc1cccc(C(F)(F)F)c1)N(c1ccccc1)c1nc(-c2ccccc2)ns1
IC50 [1]: > 99 µM (inactive)

SMILES: CC(C)c1cc(NC(=O)c2ccccc2)cc(C(C)C)c1O
AC50 (HEK293 [4]): 98.1 µM (active)
AC50 [5]: 30 µM (active)
IC50 [6]: < 0.368 µM (active)
EC50 [7]: > 53 µM (inactive)
IC50 [8]: 5.7 µM (active)

SMILES: C[C@@H]1O[C@@H](O[C@H]2[C@H](O[C@H]3C[C@]4(C)[C@H](CC(O)C5[C@@H]([C@]6(C)CC[C@@H](C(C)(C)O)O6)CC[C@]54C)[C@@]4(C)CC[C@H](O)C(C)(C)C34)O[C@H](CO)[C@@H](O)[C@@H]2O)[C@H](O)[C@H](O)[C@H]1O (some centres not stated)
EC50 (Insulin-degrading enzyme [9]): > 54.7 µM (inactive)
EC50 (Insulin-degrading enzyme [10]): > 54.7 µM (inactive)
IC50 (HEK293 [11]): > 89.2 µM (inactive)
EC50 (HEK293 [12]): > 54.7 µM (inactive)

IC50 (Caspase-3): > 99 µM (inactive)
IC50 [2]: 18.7 µM (active)
IC50 [3]: > 99 µM (inactive)
SMILES: NC(=O)c1ccc(OC2CSC2)cc1
IC50 [1]: 7.5 µM (active)
